Reference: paper PMC10590419, “Structural and mechanistic insights into the inhibition of respiratory syncytial virus polymerase by a non-nucleoside inhibitor” (Communications Biology, 2023)

Biological target: T1, Human DNA polymerase alpha (Homo sapiens, UniProt P09884)
T1 construct: purchased CHIMERx
T1 sequence (P09884 1-1462): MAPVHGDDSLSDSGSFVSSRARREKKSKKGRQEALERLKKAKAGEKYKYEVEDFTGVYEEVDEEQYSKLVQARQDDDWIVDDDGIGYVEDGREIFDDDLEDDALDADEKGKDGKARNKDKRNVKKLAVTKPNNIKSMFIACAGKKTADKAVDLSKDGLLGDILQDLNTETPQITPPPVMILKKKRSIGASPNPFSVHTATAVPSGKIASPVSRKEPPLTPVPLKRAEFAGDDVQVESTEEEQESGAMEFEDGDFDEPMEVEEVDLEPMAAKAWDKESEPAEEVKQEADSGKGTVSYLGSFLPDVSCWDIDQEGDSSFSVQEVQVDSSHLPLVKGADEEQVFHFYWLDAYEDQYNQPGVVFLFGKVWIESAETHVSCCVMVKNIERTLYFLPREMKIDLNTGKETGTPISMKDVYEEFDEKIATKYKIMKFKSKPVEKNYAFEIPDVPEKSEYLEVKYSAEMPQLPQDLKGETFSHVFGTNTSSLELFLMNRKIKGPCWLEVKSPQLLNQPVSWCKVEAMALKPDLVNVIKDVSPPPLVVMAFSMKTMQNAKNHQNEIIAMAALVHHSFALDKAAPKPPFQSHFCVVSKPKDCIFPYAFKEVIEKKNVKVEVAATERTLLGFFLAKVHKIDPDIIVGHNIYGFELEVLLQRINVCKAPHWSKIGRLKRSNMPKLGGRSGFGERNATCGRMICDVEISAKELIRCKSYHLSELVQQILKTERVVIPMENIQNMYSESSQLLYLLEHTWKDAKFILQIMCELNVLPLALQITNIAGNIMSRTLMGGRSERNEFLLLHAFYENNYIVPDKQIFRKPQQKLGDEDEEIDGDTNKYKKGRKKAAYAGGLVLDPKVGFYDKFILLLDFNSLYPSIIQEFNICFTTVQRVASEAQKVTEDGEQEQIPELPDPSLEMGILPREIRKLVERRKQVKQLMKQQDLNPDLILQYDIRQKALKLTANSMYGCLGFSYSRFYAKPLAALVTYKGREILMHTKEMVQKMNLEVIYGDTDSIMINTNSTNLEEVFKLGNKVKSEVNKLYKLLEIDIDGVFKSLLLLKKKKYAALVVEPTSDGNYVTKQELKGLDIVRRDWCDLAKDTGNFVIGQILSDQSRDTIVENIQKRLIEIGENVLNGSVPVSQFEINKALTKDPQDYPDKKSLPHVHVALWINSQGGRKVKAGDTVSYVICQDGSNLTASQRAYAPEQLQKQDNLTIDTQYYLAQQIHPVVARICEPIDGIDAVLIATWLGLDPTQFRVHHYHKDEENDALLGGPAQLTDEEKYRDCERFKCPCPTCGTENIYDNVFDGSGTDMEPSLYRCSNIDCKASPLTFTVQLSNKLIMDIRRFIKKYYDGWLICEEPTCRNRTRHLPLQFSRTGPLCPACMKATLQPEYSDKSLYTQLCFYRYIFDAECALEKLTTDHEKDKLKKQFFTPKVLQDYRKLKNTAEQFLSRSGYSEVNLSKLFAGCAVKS
Assay: DNA-dependent DNA polymerase activity
Assay type: biochemical
Details: DNA Pol α
Experimental: to the method described previously 1. A 25 nM solution of RSV MTase-CTD protein or RSV L+P complex was incubated with 0.7 µM or 1.8 µM purified synthetic RNA 5’-Gppp […]
[…] (RSV9) for the MTase-CTD or L+P complex, respectively; 2 µM or 0.17 µM S-adenosyl methionine (SAM) for the MTase-CTD or L–P complex, respectively; and 0.1 µM or 0.8 µM 3H-SAM (Perkin Elmer) for the MTase-CTD or L–P complex, respectively; in 50 mM Tris-HCl pH 8.0. Compounds, previously dissolved in DMSO were added at a final concentration of 50 µM or 200 µM. After 3 h incubation at 30°C, reactions were quenched by a 20-fold dilution in ice cold water. Samples were transferred to DEAE filtermats (Perkin Elmer) using a Filtermat Harvester (Packard Instruments). The RNA-retaining mats were washed twice with 10 mM ammonium formate pH 8.0, twice with water and once with ethanol. They were then soaked with scintillation fluid (Perkin Elmer), and 3H-methyl transfer to the RNA substrates was determined using a Wallac MicroBeta TriLux Liquid Scintillation Counter.
Cellular polymerase assays
DNA-dependant DNA polymerase (DdDp) activity
Human DNA polymerases alpha (CHIMERx) at 5 U/ml, beta (CHIMERx) at 0.5 U/ml and gamma (Abcam) at 0.1 mg/ml were incubated with the tested inhibitors at specified concentrations, and a reaction mix composed of 62 µg/ml activated calf thymus DNA, dGTP (2 µM), dATP (2 µM), dCTP (2 µM), [ 3H]dTTP (0.05 µCi/µl), 0.1 mg/ml BSA and a buffer composed of Tris-HCl pH 8 (50 mM), MgCl 2 (5 mM), KCl (60 mM), and DTT (4 mM.) in a total volume of 50 µl. After 2 hours incubation at 30°C, reaction was terminated by addition of 60 µl of a chilled stop solution composed of 20% (w/v) TCA with 0.5 mM ATP. […] Radioactivity was measured via liquid scintillation counting (MicroScint-20, 40µl) on a TriLux apparatus. […]
The RNA transcription activity of human mitochondrial RNA polymerase (POLRMT) was measured by the incorporation of radioactively labeled nucleotides by POLRMT into acid-insoluble RNA products as described previously 2. […]

With COc1cc(C(=O)NC[C@](O)(c2cc(C(C)(C)O)c(F)c(-c3ccc(F)cc3)n2)C(F)(F)F)cc2cc(C)nnc12 [JNJ-8003] the IC50 was greater than 100 µM.
